Test results reported in patent US7125542B2, “Methods and compositions for treating conditions of the eye” (Massachusetts Eye and Ear Infirmary, priority 2000, dated 2006).
Like-named read-outs stand apart in the source and are kept apart here.

What was measured:
[1] = stock solution of 2 mg/ml, in the dark at 4° C.; cited from earlier work
Bcl-2 = experiment: Western blot of Bcl-2 family members in BRCE cells after Lu-Tex/PDT; format: cell-based, Bovine; details: after Lu-Tex/PDT at LD50
Protocol: (§1) In order to evaluate the expression of Bcl-2 family members in BRCE and RPE cells after Lu-Tex/PDT, BRCE and RPE cells were subjected to Lu-Tex/PDT and the resultant cellular lysates subjected to Western blot analysis for detection of the anti-apoptotic Bcl-2, Bcl-xL markers, and the pro-apoptotic Bax and Bak markers.
(§2) Cell lysates were produced as described in Example 3. Sodium dodecyl sulfate-polyacrylamide gel electrophoresis of proteins was performed with 12% SDS-polyacrylamide gels. All samples were boiled in denaturing sample buffer, and equal amounts of proteins were loaded per lane. Proteins were separated at room temperature under reducing conditions at 120 V. Western blot transfer of separated proteins was performed at room temperature, using polyvinylidene fluoride membranes at 50 mA for 1 hr. To verify equal protein loading, blots were stained with 0.1% ponceau red (Sigma) diluted in 5% acetic acid. Afterwards, blots were blocked for 1 hr in Tris buffered saline (TBS; 10 mM Tris-HCl, pH 7.5, and 150 mM NaCl) containing 5% non-fat dried milk. Next, the membranes were probed with an appropriate dilution (1:250 to 1:1000) of primary antibody in TBS containing 2.5% non-fat dried milk for one and a half hours. Mouse polyclonal antibodies against Bcl-2, Bcl-xL, Bax and Bak were purchased from Pharmingen. After incubation with primary antibody, the blots were washed for 30 minutes with frequent changes of TBS, blocked in 1% non-fat dried milk in TBS for 30 minutes, followed by incubation in a peroxidase-coupled secondary antibody for 1 hour in TBS containing 1% non-fat dried milk. The blots were washed for 1 hour with frequent changes of TBST (TBS, 0.1% Tween). Immunoblot analysis was performed using enhanced chemiluminescence plus Western blotting detection reagents (Amersham, Pharmacia Biotec Piscataway, N.J.) followed by exposure to x-ray film (ML Eastman Kodak, Rochester, N.Y.).

Bax = experiment: as above; format: cell-based, Bovine; details: after Lu-Tex/PDT at LD50
Protocol: as §1, §2

[2] = system: Bovine retinal capillary endothelial (BRCE) cells; experiment: Cell survival, 1-week cell proliferation assay in BRCE cells; format: cell-based; details: for Cellular Survival (%): BRCE
Protocol: (§3) Bovine retinal capillary endothelial (BRCE) cells (from Patricia A. D'Amore, Schepens Eye Research Institute, Boston, Mass.) and Human retinal pigment epithelial (RPE) cells (from Anthony P. Adamis, Massachusetts Eye & Ear Infirmary, Boston, Mass.) were grown at 37° C., 5% CO2 in Dulbecco's modified Eagle's medium (DMEM; Sigma, St. Louis, Mo.), 5% heat-inactivated fetal bovine serum (FBS, Gibco, Grand Island, N.Y.), supplemented with L-glutamine, penicillin, and streptomycin (Gibco Grand Island, N.Y.). Lutetium Texaphyrin (Lu-Tex) was obtained from Alcon Laboratories, Inc. (Fort Worth, Tex.) as a stock solution of 2 mg/ml, stable in the dark at 4° C., and used in accordance with the manufacturer's guidelines.
(§4) Cell survival was measured using a cell proliferation assay. Briefly, BRCE or RPE cells were plated at a density of 10^5 cells in DMEM with 5% FBS and incubated at 37° C. in 5% CO2. After eighteen hours, and if desired, recombinant human angiostatin (Calbiochem, La Jolla, Calif.) was added at a concentration of 500 ng/ml. Eighteen hours later, the medium was removed and replaced by 3 μg/ml Lu-Tex in complete media. Thirty minutes later, the cultures were exposed to timed irradiation using an argon/dye Photocoagulator at 732 nm and laser delivery system (model 920, Coherent Inc., Palo Alto, Calif.). Irradiance was delivered at a rate of […] to give a total dose of 5 to 20 J/cm^2, and irradiation time ranged from 7 to 28 minutes. After irradiation, the medium was removed and replaced with complete medium. Cultures were returned to the incubator for 7 days, after which cells were dispersed in trypsin, counted in a masked fashion, and the surviving fraction determined. Cultures were photographed at various times following Lu-Tex/PDT using a 16×-0.32 numeric aperture on a phase contrast inverted microscope (Diaphot, Nikon, Melville, N.Y.).
In order to assess the effect of combining angiostatin to Lu-Tex/PDT on BRCE cell survival, cells were pre-treated for 18 hours with 500 ng/ml angiostatin after which they were treated with Lu-Tex/PDT at various fluences. Cellular survival was measured by the 1-week cellular proliferation assay.

Bcl-xL = experiment: Western blot of Bcl-2 family members in RPE cells after Lu-Tex/PDT; format: cell-based, Human; details: up to 4 hours post-PDT, then plateau
Protocol: as §1
(§5) Cell lysates were produced as described in Example 3. Sodium dodecyl sulfate-polyacrylamide gel electrophoresis of proteins was performed with 12% SDS-polyacrylamide gels. All samples were boiled in denaturing sample buffer, and equal amounts of proteins were loaded per lane. Proteins were separated at room temperature under reducing conditions at 120 V. Western blot transfer of separated proteins was performed at room temperature, using polyvinylidene fluoride membranes at 50 mA for 1 hr. To verify equal protein loading, blots were stained with 0.1% ponceau red (Sigma) diluted in 5% acetic acid. Afterwards, blots were blocked for 1 hr in Tris buffered saline (TBS; 10 mM Tris-HCl, pH 7.5, and 150 mM NaCl) containing 5% non-fat dried milk. Next, the membranes were probed with an appropriate dilution (1:250 to 1:1000) of primary antibody in TBS containing 2.5% non-fat dried milk for one and a half hours. Mouse polyclonal antibodies against Bcl-2, Bcl-xL, Bax and Bak were purchased from Pharmingen. […]

Bak = experiment: as above; format: cell-based, Human; details: up to 4 hours post-PDT, then decline
Protocol: as §1, §5

[3] = system: Caspase 3-like (DEVD-ase) protease; experiment: Caspase 3-like (DEVD-ase) activation, Ac-DEVD-AFC cleavage in BRCE lysates; format: cell-based, Bovine
Protocol: In order to investigate the role of apoptosis in Lu-Tex/PDT mediated cell death in BRCE and RPE, the activation of Caspase 3-like (DEVD-ase) protease, a hallmark of apoptosis (Nicholson (1997) TIBS 22: 299–306), was monitored. The kinetics of activation were measured spectrofluorometrically by assaying the hydrolysis of a substrate that can be cleaved only by the caspase 3-like protease family members.
Various times after Lu-Tex/PDT, 10^6 cells were collected by centrifugation, and the washed cell pellet resuspended in 500 μl of ice-cold lysis buffer (pH 7.5) containing 10 mM Tris, 130 mM NaCl, 1% Triton X-100, 10 mM NaF, 10 mM NaPi, 10 mM NaPPi, 16 μg/ml benzamidine, 10 μg/ml phenanthroline, 10 μg/ml aprotinin, 10 μg/ml leupeptin, 10 μg/ml pepstatin and 4 mM 4(2-aminoethyl)-benzene-sulfanyl fluoride hydrochloride (AEBSF). Cellular lysates were stored in aliquots at −84° C. for later protease activity assay or Western blot analysis. A protein assay (Coomassie Plus protein assay (Pierce, Rockford, Ill.) with a bovine serum albumin (BSA) standard was used to assay protein concentration in cell extract.
(§6) In order to measure protease activity, aliquots containing 50 1 μg of cellular protein were incubated with 14 μM (final concentration N-acetyl (Asp-Glu-Val-Asp (SEQ. ID NO: 3)-(7-amino-4-trifluoromethly coumarin) (Ac-DEVD-AFC); (Pharmingen San Diego, Calif.) in 1 ml protease assay buffer pH 7.2 (20 mM piperazine-N-N^1-bis (2-ethanesulfuric acid) (PIPES), 100 mM NaCl, 10 mM dithiothreitol (DTT), 1 mM EDTA, 0.1%(w/v) 3-[(3-Cholamidopropyl) dimethyl ammonio]-1-propane sulfonate (CHAPS), and 10% sucrose) at 37° C. for 1 hour. Fluorescence was measured using a Perkin-Elmer MPF-44A spectrofluorometer (λexcitation, 400 nm; λemission 505 nm). Cellular protein served as the blank.
In order to examine the effect of combining angiostatin and Lu-Tex/PDT on DEVD-ase activation in BRCE cells, cells were treated with angiostatin alone, Lu-Tex/PDT alone and angiostatin/Lu-Tex/PDT, following which caspase 3-like activity was assayed as described above. Fluences of 20 and 40 J/cm^2 were used, corresponding to LD100 of combination angiostatin/Lu-Tex/PDT and Lu-Tex/PDT alone respectively. […] As in the case of BRCE cells treated with Lu-Tex/PDT alone, the rate of entry into apoptosis of BRCE cells treated with combination of angiostatin/Lu-Tex/PDT was time-dependent.

[4] = typical; cited from earlier work
[5] = system: Caspase 3-like (DEVD-ase) protease; experiment: Caspase 3-like (DEVD-ase) activation, Ac-DEVD-AFC cleavage in RPE lysates; format: cell-based, Human; details: RPE, 10, 20 and 40 J/cm^2
Protocol: In order to investigate the role of apoptosis in Lu-Tex/PDT mediated cell death in BRCE and RPE, the activation of Caspase 3-like (DEVD-ase) protease, a hallmark of apoptosis (Nicholson (1997) TIBS 22: 299–306), was monitored. The kinetics of activation were measured spectrofluorometrically by assaying the hydrolysis of a substrate that can be cleaved only by the caspase 3-like protease family members. […]
as §6, with “Cellular protein served as the blank.” left out

[6] = system: Human retinal pigment epithelial (RPE) cells; details: cited from earlier work
RPE cells = experiment: Cellular morphology following PDT, RPE cells; format: cell-based, Human; details: after treatment
Protocol: (§7) Experiments were performed to establish how PDT effects the cellular morphology of BRCE and RPE cells. The cells were treated and exposed to PDT either alone or in combination with angiostatin as described in Example 1. Although cells appeared severely damaged immediately after PDT, subsequent recovery occurred in certain circumstances. One week after PDT, some cells disappeared while those that remained regained their spindle shape and their ability to attach.

[7] = system: Human retinal pigment epithelial (RPE) cells; experiment: Cell survival, 1-week cell proliferation assay in RPE cells; format: cell-based; details: for Cellular Survival (%): RPE
Protocol: as §3, §4

BRCE cells = experiment: Cellular morphology following PDT, BRCE cells; format: cell-based, Bovine; details: one week after treatment
Protocol: as §7

[8] = fluence 5 J/cm^2, 3 μg/ml Lu-Tex, angiostatin 500 ng/ml where used, 7 days, mean ± SD
[9] = fluence 10 J/cm^2, 3 μg/ml Lu-Tex, angiostatin 500 ng/ml where used, 7 days, mean ± SD
[10] = fluence 20 J/cm^2, 3 μg/ml Lu-Tex, angiostatin 500 ng/ml where used, 7 days, mean ± SD
[11] = angiostatin alone 500 ng/ml, no PDT

## CC(=O)[O-].CC(=O)[O-].CCc1c(CC)c2cc3nc(cnc4cc(OCCOCCOCCOC)c(OCCOCCOCCOC)cc4ncc4nc(cc1[n-]2)C(CCCO)=C4C)C(C)=C3CCCO.O.[Lu+3] [Lu-Tex/PDT, Lutetium Texaphyrin]
[1]
  stability of stock solution: stable
Bcl-2
  Bcl-2 protein level: downregulation
Bax
  Bax protein level: upregulation
  cellular ratio of Bax to Bcl-2 protein: increase
[2]; [8]
  Cellular Survival (%): 79.13 ± 4.05 (5J/cm^2) %
[2]; [9]
  Cellular Survival (%): 53.17 ± 0.32 (10J/cm^2) %
[2]; [10]
  Cellular Survival (%): 33.34 ± 2.26 (20J/cm^2) %
[2]; at the concentration of Lu-Tex used (3 μg/ml), no light
  dark toxicity: no dark toxicity was observed
[2]; fluence 40 J/cm^2
  lethality of BRCE cells: 100%
[2]; fluence of light
  lethal dose (LD100) for BRCE cells: 40 J/cm^2
Bcl-xL
  Bcl-xL protein level: upregulation
Bak
  Bak protein level: upregulation
[3]; 10 J/cm^2 and 20 J/cm^2
  increase of caspase 3-like activation in BRCE cells as compared to RPE cells: about 50%
[3]; 40 J/cm^2
  caspase 3-like activation levels in BRCE relative to RPE cells: 5 fold
[3]; BRCE
  caspase 3-like (DEVD-ase) activity, Lu-Tex/PDT (40 J/cm^2) compared with angiostatin/Lu-Tex/PDT (20 J/cm^2): increased levels
[3]; BRCE, 10, 20 and 40 J/cm^2
  earliest elevation of caspase 3-like activity post-Lu-Tex/PDT: 10 min
  time of peak caspase 3-like activity post-Lu-Tex/PDT: 40 min
[4]
  persistence in the target neovasculature: about twenty
  time until present within the target neovasculature post administration: one
[5]
  earliest elevation of caspase 3-like activity post-Lu-Tex/PDT: 10 min
  time of peak caspase 3-like activity post-Lu-Tex/PDT: 40 min
[6]; fluence 20 J/cm^2, previous studies
  RPE cell survival: about 43%
[6]; fluence 40 J/cm^2, previous studies
  RPE cell survival: ~21%
RPE cells
  cellular morphology / fate of RPE cells: appeared unchanged
[7]; [8]
  Cellular Survival (%): 94.55 ± 1.60 (5J/cm^2) %
[7]; [9]
  Cellular Survival (%): 59.59 ± 3.56 (10J/cm^2) %
[7]; [10]
  Cellular Survival (%): 53.47 ± 3.18 (20J/cm^2) %
[7]; light dose 20 J/cm^2 (instead of 40 J/cm^2)
  improvement of RPE cell survival post-PDT: 20%

## C=Cc1c(C)c2cc3nc(c(CC(=O)N[C@@H](CC(=O)O)C(=O)O)c4[nH]c(cc5nc(cc1[nH]2)C(C)=C5CC)c(C)c4C(=O)O)[C@@H](CCC(=O)O)[C@@H]3C [N-aspartyl chlorin e6]
[4]
  persistence in the target neovasculature: about twenty
  time until present within the target neovasculature post administration: one

## O=C([O-])c1c(Cl)c(Cl)c(Cl)c(Cl)c1-c1c2cc(I)c(=O)c(I)c-2oc2c(I)c([O-])c(I)cc12.[Na+].[Na+] [rose bengal]
[4]
  persistence in the target neovasculature: about ten
  time until present within the target neovasculature post administration: one

## Angiostatin
[2]; [11]
  Cellular Survival (%): 87.39%
[2]; angiostatin alone, 500 ng/ml
  killing of BRCE cells: 12.61%
BRCE cells
  cellular morphology / fate of BRCE cells: continued to proliferate and reached confluence
RPE cells
  cellular morphology / fate of RPE cells: continued to proliferate and reached confluence
[7]; [11]
  Cellular Survival (%): 99.09%
[7]; human angiostatin alone
  cytotoxicity on human RPE cells: no cytotoxicity was observed

## benzoporphyrin derivative
[4]
  persistence in the target neovasculature: about fifty
  time until present within the target neovasculature post administration: one
